Data reported in the supplement of paper PMC10307832.

compound: CC(C)CCN1c2nc(Nc3cc(F)c(O)c(F)c3)ncc2N(C)C(=O)C1C [BI-D1870] + O=C(c1cc(Cc2n[nH]c(=O)c3ccccc23)ccc1F)N1CCN(C(=O)C2CC2)CC1 [Olaparib] (partner 8 µM); test: relative viability (nuclei count vs DMSO), 5 days (fraction); higher = more cells survive; details: first compound 0.04 µM
Method in brief: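 The day after seeding in 1536-well plates, lung cancer cell lines were treated by pin tool with a single drug, or with a fixed anchor-drug dose together with five library-drug doses (not always all listed) in √10 steps. After 5 days, a combined fix-and-stain solution (final 0.05% Triton X-100, 1% formaldehyde, 1 ug/ml Hoechst) was added. Nuclei counted on 4× images gave relative viability as treated counts over vehicle counts, reported as the median of duplicate plates.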

Cell Line | relative viability
BEN | 1.23
HARA | 0.795
HCC-78 | 0.662
NCI-H322M | 0.736
LCLC-97TM1 | 0.521
A-427 | 0.71
NCI-H441 | 0.682
NCI-H1734 | 0.684
NCI-H460 | 0.492
NCI-H2347 | 0.547
NCI-H1395 | 0.448
201T | 0.901
NCI-H1915 | 0.249
HCC-827 | 0.71
LXF-289 | 1.1
NCI-H23 | 0.307
NCI-H647 | 0.747
NCI-H1651 | 0.2
EPLC-272H | 0.692
NCI-H1792 | 0.434
NCI-H1355 | 0.898
NCI-H3122 | 0.576
NCI-H1437 | 0.617
NCI-H1755 | 0.855
HCC-15 | 0.819
NCI-H1793 | 1.05
PC-14 | 0.364
EKVX | 0.916
LC-2-ad | 0.691
NCI-H1944 | 0.455

same assay, conditions: first compound 0.1265 µM

Cell Line | relative viability
HOP-62 | 0.364
HCC-44 | 0.954
LU99A | 0.243
BEN | 1
HARA | 0.826
HCC-78 | 0.932
NCI-H322M | 0.75
LCLC-97TM1 | 0.33
A-427 | 0.647
NCI-H441 | 0.549
NCI-H1734 | 0.545
NCI-H460 | 0.384
NCI-H2347 | 0.589
NCI-H1395 | 0.436
201T | 0.806
NCI-H1915 | 0.24
HCC-827 | 0.649

Cell Line | relative viability
LXF-289 | 1.04
NCI-H23 | 0.263
NCI-H647 | 0.447
NCI-H1651 | 0.157
EPLC-272H | 0.804
NCI-H1792 | 0.334
NCI-H1355 | 0.698
NCI-H3122 | 0.562
NCI-H1437 | 0.577
NCI-H1755 | 0.842
HCC-15 | 0.761
NCI-H1793 | 0.708
PC-14 | 0.251
EKVX | 0.789
LC-2-ad | 0.66
NCI-H1944 | 0.412

same assay, conditions: first compound 0.4 µM

Cell Line | relative viability
HOP-62 | 0.388
HCC-44 | 0.98
LU99A | 0.264
BEN | 1.02
HARA | 0.86
HCC-78 | 0.682
NCI-H322M | 0.713
LCLC-97TM1 | 0.38
A-427 | 0.659
NCI-H441 | 0.569
NCI-H1734 | 0.605
NCI-H460 | 0.323
NCI-H2347 | 0.552
NCI-H1395 | 0.429
201T | 0.809
NCI-H1915 | 0.267
HCC-827 | 0.594

Cell Line | relative viability
LXF-289 | 1.06
NCI-H23 | 0.294
NCI-H647 | 0.579
NCI-H1651 | 0.175
EPLC-272H | 0.692
NCI-H1792 | 0.369
NCI-H1355 | 0.713
NCI-H3122 | 0.566
NCI-H1437 | 0.578
NCI-H1755 | 0.893
HCC-15 | 0.713
NCI-H1793 | 0.799
PC-14 | 0.273
EKVX | 0.805
LC-2-ad | 0.725
NCI-H1944 | 0.368

same assay, conditions: first compound 1.265 µM

Cell Line | relative viability
HOP-62 | 0.525
HCC-44 | 1.05
LU99A | 0.244
BEN | 1.11
HARA | 0.868
HCC-78 | 0.971
NCI-H322M | 0.735
LCLC-97TM1 | 0.634
A-427 | 0.705
NCI-H441 | 0.537
NCI-H1734 | 0.673
NCI-H460 | 0.436
NCI-H2347 | 0.633
NCI-H1395 | 0.489
201T | 0.851
NCI-H1915 | 0.206
HCC-827 | 0.634

Cell Line | relative viability
LXF-289 | 1.08
NCI-H23 | 0.301
NCI-H647 | 0.496
NCI-H1651 | 0.187
EPLC-272H | 0.381
NCI-H1792 | 0.812
NCI-H1355 | 0.74
NCI-H3122 | 0.631
NCI-H1437 | 0.578
NCI-H1755 | 0.896
HCC-15 | 0.694
NCI-H1793 | 1.02
PC-14 | 0.197
EKVX | 0.969
LC-2-ad | 0.609
NCI-H1944 | 0.398

same assay, conditions: first compound 4 µM

Cell Line | relative viability
HOP-62 | 0.383
HCC-44 | 0.976
LU99A | 0.229
BEN | 0.806
HARA | 0.972
HCC-78 | 0.68
NCI-H322M | 0.624
LCLC-97TM1 | 0.301
A-427 | 0.551
NCI-H441 | 0.492
NCI-H1734 | 0.463
NCI-H460 | 0.179
NCI-H2347 | 0.487
NCI-H1395 | 0.406
201T | 0.856
NCI-H1915 | 0.146
HCC-827 | 0.626

Cell Line | relative viability
LXF-289 | 0.612
NCI-H23 | 0.212
NCI-H647 | 0.359
NCI-H1651 | 0.178
EPLC-272H | 0.204
NCI-H1792 | 0.315
NCI-H1355 | 0.57
NCI-H3122 | 0.588
NCI-H1437 | 0.445
NCI-H1755 | 0.82
HCC-15 | 0.404
NCI-H1793 | 0.898
PC-14 | 0.138
EKVX | 0.721
LC-2-ad | 0.624
NCI-H1944 | 0.367
